Values of other authors as cited in patent US20080182860A1, “Pyrimidine Compounds as Purine Receptor Antagonist” (VERNALIS (R&D) LTD., priority 2004, published 2008).

Legend:
Parkinsonian patients = conditions: 150 mg/day slow release oral

SMILES | anticataleptic effects of a subthreshold dose of L-DOPA plus benserazide (adenosine A2A receptor; in vivo) | catalepsy induced by haloperidol and reserpine (adenosine A2A receptor; in vivo) | cataleptic responses induced by intracerebroventricular CGS 21680 (adenosine A2A receptor; oral administration) | serum theophylline levels (Parkinsonian patients; after one week, 15 Parkinsonian patients) | mean objective disability scores (Parkinsonian patients; up to 12 weeks)
CCCn1c(=O)c2c(nc(/C=C/c3ccc(OC)c(OC)c3)n2C)n(CCC)c1=O [KF 17837, (E)-8-(3,4-dimethoxystyryl)-1,3-dipropyl-7-methylxanthine] | potentiated | reduced | significantly ameliorated |  | 
Cn1c(=O)c2[nH]cnc2n(C)c1=O [Theophylline, 1,3-dimethylxanthine] |  |  |  | 4.44 mg/L | significant improvements
